Results from PMC9516332 (Frontiers in Oncology, 2022).

Columns and labels:
Assay in all cases: Kinase panel profiling at 1 µmol/L (MSA or IMAP), percentage inhibition
Type in all cases: biochemical
[1] = molecular target: T1, panel of 255 wild-type kinases (Homo sapiens, UniProt Q13237); conditions: CGK2 kinase assay; 1 µmol/L single concentration; read-out: %-inhibition CGK2
T1 sequence (Q13237 1-762): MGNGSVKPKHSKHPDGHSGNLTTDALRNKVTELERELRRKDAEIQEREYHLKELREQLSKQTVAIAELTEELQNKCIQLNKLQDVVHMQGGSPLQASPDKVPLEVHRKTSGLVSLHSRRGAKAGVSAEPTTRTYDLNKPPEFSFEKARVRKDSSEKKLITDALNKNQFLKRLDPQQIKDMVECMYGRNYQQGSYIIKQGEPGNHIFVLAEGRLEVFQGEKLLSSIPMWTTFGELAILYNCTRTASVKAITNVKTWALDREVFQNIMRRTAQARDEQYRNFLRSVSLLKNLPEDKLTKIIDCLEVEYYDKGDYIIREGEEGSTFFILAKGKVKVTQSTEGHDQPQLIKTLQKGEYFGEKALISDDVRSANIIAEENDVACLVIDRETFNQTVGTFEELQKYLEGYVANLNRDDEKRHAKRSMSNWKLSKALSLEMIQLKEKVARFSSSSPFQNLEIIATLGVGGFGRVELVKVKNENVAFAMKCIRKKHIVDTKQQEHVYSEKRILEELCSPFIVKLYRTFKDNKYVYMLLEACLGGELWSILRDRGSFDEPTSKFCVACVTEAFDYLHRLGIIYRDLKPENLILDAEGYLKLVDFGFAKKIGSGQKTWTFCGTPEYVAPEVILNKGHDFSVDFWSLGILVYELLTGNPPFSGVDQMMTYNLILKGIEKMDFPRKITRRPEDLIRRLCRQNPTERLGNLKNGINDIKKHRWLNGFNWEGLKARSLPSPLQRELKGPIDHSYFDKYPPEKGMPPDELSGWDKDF

[2] = molecular target: panel of 255 wild-type kinases (Homo sapiens, UniProt Q9NYA1); conditions: kinase SPHK1; 1 µmol/L single concentration; read-out: %-inhibition at 1 µmol/L, SPHK1
[3] = molecular target: panel of 255 wild-type kinases (Homo sapiens, UniProt Q13164); conditions: kinase Erk5; 1 µmol/L single concentration; read-out: %-inhibition at 1 µmol/L, Erk5
[4] = molecular target: panel of 255 wild-type kinases (Homo sapiens, UniProt Q14012); conditions: CaMK1α kinase assay; 1 µmol/L single concentration; read-out: %-inhibition CaMK1α
[5] = molecular target: panel of 255 wild-type kinases (Homo sapiens, UniProt O94804); conditions: kinase LOK; 1 µmol/L single concentration; read-out: %-inhibition at 1 µmol/L, LOK
[6] = molecular target: panel of 255 wild-type kinases (Homo sapiens, UniProt P78368); conditions: kinase CK1γ2; 1 µmol/L single concentration; read-out: %-inhibition at 1 µmol/L, CK1γ2
[7] = molecular target: T2, panel of 255 wild-type kinases (Homo sapiens, UniProt Q02156); conditions: kinase PKCε; 1 µmol/L single concentration; read-out: %-inhibition at 1 µmol/L, PKCε
T2 sequence (Q02156 1-737): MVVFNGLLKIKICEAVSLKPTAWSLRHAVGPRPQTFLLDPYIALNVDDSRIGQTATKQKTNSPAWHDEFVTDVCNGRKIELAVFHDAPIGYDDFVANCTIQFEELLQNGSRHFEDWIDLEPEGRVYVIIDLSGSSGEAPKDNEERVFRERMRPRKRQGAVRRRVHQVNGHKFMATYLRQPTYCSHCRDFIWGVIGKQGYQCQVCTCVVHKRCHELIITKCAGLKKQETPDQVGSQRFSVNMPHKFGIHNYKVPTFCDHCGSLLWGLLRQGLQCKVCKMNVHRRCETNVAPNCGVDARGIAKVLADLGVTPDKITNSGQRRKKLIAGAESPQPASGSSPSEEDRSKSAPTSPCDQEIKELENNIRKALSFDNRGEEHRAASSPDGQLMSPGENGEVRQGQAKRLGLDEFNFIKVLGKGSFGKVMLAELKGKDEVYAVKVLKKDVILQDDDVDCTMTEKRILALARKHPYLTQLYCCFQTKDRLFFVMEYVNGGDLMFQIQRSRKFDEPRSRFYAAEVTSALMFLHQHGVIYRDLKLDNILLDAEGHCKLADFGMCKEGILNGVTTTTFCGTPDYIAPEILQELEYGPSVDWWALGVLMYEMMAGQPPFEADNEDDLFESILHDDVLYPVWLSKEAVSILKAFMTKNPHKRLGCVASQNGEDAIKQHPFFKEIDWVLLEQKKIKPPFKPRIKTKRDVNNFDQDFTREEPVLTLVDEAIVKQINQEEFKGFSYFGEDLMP

[8] = molecular target: panel of 255 wild-type kinases (Homo sapiens, UniProt Q9Y243); conditions: AKT3 kinase assay; 1 µmol/L single concentration; read-out: %-inhibition AKT3

Cc1cc(Nc2ncnc3ccc(NC4=NC(C)(C)CO4)cc23)ccc1Oc1ccn2ncnc2c1 [tucatinib]
inhibition at 1 µM [1]: -0.162%
inhibition at 1 µM [2]: -6.37%
inhibition at 1 µM [3]: -1.07%
inhibition at 1 µM [4]: -5.47%
inhibition at 1 µM [5]: 6.43%
inhibition at 1 µM [6]: -4%
inhibition at 1 µM [7]: -0.0549%
inhibition at 1 µM [8]: -4.58%

C=CC(=O)N1CCC([C@@H]2CCNc3c(C(N)=O)c(-c4ccc(Oc5ccccc5)cc4)nn32)CC1 [zanubrutinib]
inhibition at 1 µM [1]: -0.389%
inhibition at 1 µM [2]: -15%
inhibition at 1 µM [3]: 3.76%
inhibition at 1 µM [4]: -0.157%
inhibition at 1 µM [5]: 5%
inhibition at 1 µM [6]: -7%
inhibition at 1 µM [7]: 8%
inhibition at 1 µM [8]: -3%
